Test results reported in article PMC4891385 (Clinical Drug Investigation, 2016).

How the values were obtained:
[1] = no reference given; cited from earlier work
OATP1B3 = target: T1, OATP1B3 (Homo sapiens, UniProt Q9NPD5); test: [14C]-lesinurad uptake, substrate test, hOATP1B3 MDCK-II cells; format: in vitro ADME
T1 sequence (Q9NPD5 1-702): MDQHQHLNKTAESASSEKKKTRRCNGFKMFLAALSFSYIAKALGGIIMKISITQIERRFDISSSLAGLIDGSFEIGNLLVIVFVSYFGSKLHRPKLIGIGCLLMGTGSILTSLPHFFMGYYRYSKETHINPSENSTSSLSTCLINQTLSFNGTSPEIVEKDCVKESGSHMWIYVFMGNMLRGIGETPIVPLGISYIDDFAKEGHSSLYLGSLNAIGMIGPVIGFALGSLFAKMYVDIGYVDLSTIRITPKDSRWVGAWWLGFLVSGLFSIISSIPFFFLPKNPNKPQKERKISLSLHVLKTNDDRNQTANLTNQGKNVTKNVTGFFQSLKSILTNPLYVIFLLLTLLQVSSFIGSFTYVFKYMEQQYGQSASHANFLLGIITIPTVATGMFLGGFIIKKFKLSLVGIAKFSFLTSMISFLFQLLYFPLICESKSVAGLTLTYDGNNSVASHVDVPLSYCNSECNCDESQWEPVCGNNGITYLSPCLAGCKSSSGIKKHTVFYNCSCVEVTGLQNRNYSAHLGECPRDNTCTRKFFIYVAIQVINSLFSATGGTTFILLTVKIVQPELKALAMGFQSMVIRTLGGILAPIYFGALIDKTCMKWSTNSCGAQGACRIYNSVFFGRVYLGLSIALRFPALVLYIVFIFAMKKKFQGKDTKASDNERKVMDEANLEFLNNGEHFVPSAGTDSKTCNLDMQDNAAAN

OATP1B1 = target: T2, OATP1B1 (Homo sapiens, UniProt Q9Y6L6); test: [14C]-lesinurad uptake, substrate test, hOATP1B1 MDCK-II cells; format: in vitro ADME
T2 sequence (Q9Y6L6 1-691): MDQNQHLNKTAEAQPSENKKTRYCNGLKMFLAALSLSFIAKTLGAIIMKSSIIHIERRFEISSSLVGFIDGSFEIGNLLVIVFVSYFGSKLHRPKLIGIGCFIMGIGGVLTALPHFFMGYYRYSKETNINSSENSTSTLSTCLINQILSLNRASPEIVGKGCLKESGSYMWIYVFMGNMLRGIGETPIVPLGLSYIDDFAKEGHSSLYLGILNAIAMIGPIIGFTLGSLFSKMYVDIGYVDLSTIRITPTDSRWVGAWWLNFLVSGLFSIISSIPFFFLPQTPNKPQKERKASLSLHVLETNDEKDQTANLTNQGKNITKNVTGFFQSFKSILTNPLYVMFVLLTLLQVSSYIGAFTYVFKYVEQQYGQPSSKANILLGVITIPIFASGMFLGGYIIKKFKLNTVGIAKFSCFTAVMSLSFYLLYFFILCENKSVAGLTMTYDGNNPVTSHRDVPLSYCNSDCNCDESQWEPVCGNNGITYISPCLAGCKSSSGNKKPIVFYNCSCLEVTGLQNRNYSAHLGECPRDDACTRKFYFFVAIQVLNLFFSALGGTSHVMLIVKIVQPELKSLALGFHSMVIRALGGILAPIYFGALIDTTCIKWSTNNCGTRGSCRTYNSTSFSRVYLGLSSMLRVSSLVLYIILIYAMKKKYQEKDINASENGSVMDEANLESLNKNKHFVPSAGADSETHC

O=C(O)CSc1nnc(Br)n1-c1ccc(C2CC2)c2ccccc12 [lesinurad]
accumulation during multiple once-daily dosing [1]: does not accumulate | Lesinurad as substrate (OATP1B3): not a substrate | Lesinurad as substrate (OATP1B1): weak substrate | increase in lesinurad uptake in transfected versus non-transfected cells (OATP1B1; lesinurad 10 µM): 2.25 fold
